According to patent US20050288347A1, “Certain triazole-based compounds, compositions, and uses thereof” (priority 2004, published 2005):
“Also recorded” adds a separate entry of the source.

System: protein kinase
Assay: HTS ATP-utilizing enzyme assay, off-chip mobility-shift format (Caliper HTS 250)
Type: biochemical, human
Conditions: test compound 10 μM; for protein kinase against which the compound exhibits inhibitory activity (Table 3): active = activity greater than three-sigma from the mean of the predominately inactive population for that enzyme; for Kinase: kinase(s) for which the compound exhibits protein kinase inhibitory activity, active = greater than three-sigma from the mean activity of inactive compounds
How it was run: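 Single-point screen at 10 μM compound in HEPES pH 7.5 buffer with Triton X-100 and BSA, 2.5 h at 20–22 °C. Substrate-to-phosphopeptide ratio measured by off-chip microfluidic mobility shift; EDTA wells as 100% and DMSO wells as 0% control, hits called at three-sigma limits.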

CCOc1ccc2nc(-c3ccc(OC)cc3)cc(-c3nnc(SCc4ccc(F)cc4F)n3C)c2c1
protein kinase against which the compound exhibits inhibitory activity (Table 3): CHEK2

N#CCSc1nnc(-c2ccco2)n1-c1ccccc1 [2-(5-(furan-2-yl)-4-phenyl-4H-1,2,4-triazol-3-ylthio)acetonitrile]
Kinase: CHEK2

CCOCCSc1nnc(-c2cccc(C)c2)[nH]1
protein kinase against which the compound exhibits inhibitory activity (Table 3): AURORA-A; also recorded: FLT-3; also recorded: GSK3-β

Cn1c(S)nnc1COc1ccc(Br)cc1 [5-((4-bromophenoxy)methyl)-4-methyl-4H-1,2,4-triazole-3-thiol]
Kinase: CDK2-cyclinE

CCn1c(COc2cccc3ccccc23)nnc1SCC#N
Kinase: AURORA-A

CCOc1ccc2nc(NC(=O)CSc3nnc(-c4ccncc4)n3Cc3ccco3)sc2c1
Kinase: GSK3-α and AKT1

CCn1c(S)nnc1-c1ccc(S(=O)(=O)N2CCN(C)CC2)cc1
Kinase: GSK3-α; also recorded: GSK3-β

O=C(CSc1nnc(-c2cc3ccccc3cc2O)n1Cc1ccco1)c1ccc(F)cc1
Kinase: AURORA-A

CCCCNC(=O)CSc1nnc(-c2ccccc2O)n1-c1ccccc1OC
protein kinase against which the compound exhibits inhibitory activity (Table 3): INSR and KIT and SYK

Sc1nnc(CNc2cccc(Cl)c2)n1CCc1ccccc1 [5-((3-chlorophenylamino)methyl)-4-phenethyl-4H-1,2,4-triazole-3-thiol]
Kinase: GSK3-α; also recorded: GSK3-β; also recorded: AURORA-A

COc1ccccc1-c1nnc(S)n1C [5-(2-methoxyphenyl)-4-methyl-4H-1,2,4-triazole-3-thiol]
Kinase: CDK2-cyclinE

COc1ccc(C(=O)CSc2nnc(-c3cc4ccccc4cc3O)n2Cc2ccco2)cc1
Kinase: AURORA-A

FC(F)(F)c1cccc(-c2nnc(SCc3cccc(I)c3)[nH]2)c1 [3-(3-iodobenzylthio)-5-(3-(trifluoromethyl)phenyl)-4H-1,2,4-triazole]
protein kinase against which the compound exhibits inhibitory activity (Table 3): CHEK2

Cc1ccc(NCc2nnc(SCC(=O)NCc3ccco3)n2CC2CCCO2)c(C)c1 (centres unmarked)
Kinase: PDGFRR-α and FYN

O=C(CSc1nnc(-c2ccccc2O)n1Cc1ccccc1)N(c1ccccc1)c1ccccc1
Kinase: CDK2-cyclinA; also recorded: AURORA-A

CCc1nnc(SCC=C(C)C)n1Cc1ccc2c(c1)OCO2
protein kinase against which the compound exhibits inhibitory activity (Table 3): GSK3-β; also recorded: GSK3-α

CC(=O)c1cccc(NC(=O)CSc2nnc(-c3ccc(O)cc3)n2C)c1
Kinase: GSK3-β; also recorded: GSK3-α; also recorded: CHEK2

COc1ccc(NCc2nnc(SCC(=O)N3c4ccccc4Sc4ccccc43)n2-c2ccccc2)cc1
Kinase: PDGFRR-α

CCc1ccc(OCc2nnc(SCCC(=O)O)n2CC)cc1
protein kinase against which the compound exhibits inhibitory activity (Table 3): MSK1

CCOCCSc1nnc(-c2cccnc2)[nH]1 [3-(5-(2-ethoxyethylthio)-4H-1,2,4-triazol-3-yl)pyridine]
protein kinase against which the compound exhibits inhibitory activity (Table 3): AURORA-A

CCn1c(SCC(=O)O)nnc1-c1cc2c(C)nn(-c3ccccc3)c2s1
Kinase: FYN

COc1ccc(-c2nnc(SCC(=O)Nc3ccccc3Cl)n2-c2ccccc2)cc1
Kinase: INSR and SYK

CCN(CC)S(=O)(=O)c1ccc(-c2nnc(SCC(=O)Nc3nccs3)n2CC)cc1
Kinase: GSK3-α; also recorded: GSK3-β

COc1ccc(-c2nnc(SCC(=O)N(C)C)n2-c2ccccc2)cc1
Kinase: PDK1 and SYK and INSR

COCCn1c(SCC(=O)c2ccccc2)nnc1-c1ccc(OC)cc1
Kinase: AKT1

CSc1nnc(-c2ccc(O)cc2)n1-c1ccccc1 [4-(5-(methylthio)-4-phenyl-4H-1,2,4-triazol-3-yl)phenol]
protein kinase against which the compound exhibits inhibitory activity (Table 3): GSK3-β; also recorded: GSK3-α; also recorded: CDK2-cyclinA

Cn1c(SCC(=O)N(CC(=O)NC2CCCCC2)C2CCCC2)nnc1-c1ccc(C(C)(C)C)cc1
Kinase: DAPK1

Oc1ccc(-c2nnc(SCCN3CCOCC3)n2-c2ccccc2)cc1 [4-(5-(2-morpholinoethylthio)-4-phenyl-4H-1,2,4-triazol-3-yl)phenol]
protein kinase against which the compound exhibits inhibitory activity (Table 3): GSK3-α

Cn1c(CNc2cccc(Cl)c2)nnc1SCC#N
Kinase: AURORA-A

COc1ccccc1-n1c(SC(C)C(=O)Nc2cccc(NC(=O)c3ccco3)c2)nnc1-c1cccc(Cl)c1 (centres unmarked)
protein kinase against which the compound exhibits inhibitory activity (Table 3): ROCK2

CCn1c(SCC(=O)Nc2sc3c(c2C#N)CCCC3)nnc1-c1ccc(O)cc1
Kinase: AURORA-A

OC(CSc1nnc(-c2ccc(Cl)c(Cl)c2)[nH]1)C(F)(F)F (centres unmarked)
protein kinase against which the compound exhibits inhibitory activity (Table 3): AURORA-A; also recorded: FLT-3; also recorded: GSK3-β

CNC(=O)CSc1nnc(-c2ccccc2O)n1-c1ccccc1OC
protein kinase against which the compound exhibits inhibitory activity (Table 3): AURORA-A

CCc1ccc(OCc2nnc(SCC#N)n2CC)cc1 [2-(4-ethyl-5-((4-ethylphenoxy)methyl)-4H-1,2,4-triazol-3-ylthio)acetonitrile]
Kinase: AURORA-A

CC1=CC(C)=NCN1SCc1nnc(SCc2ccc([N+](=O)[O-])cc2)n1Cc1ccco1
protein kinase against which the compound exhibits inhibitory activity (Table 3): LYNA

CCn1c(COc2cccc3ccccc23)nnc1SCC(C)C [4-ethyl-3-(isobutylthio)-5-((naphthalen-1-yloxy)methyl)-4H-1,2,4-triazole]
protein kinase against which the compound exhibits inhibitory activity (Table 3): c-TAK1 and CDK1

CCOC(=O)c1ccc(CSc2nnc(-c3cccc(C)c3)[nH]2)o1 [ethyl 5-((5-m-tolyl-4H-1,2,4-triazol-3-ylthio)methyl)furan-2-carboxylate]
protein kinase against which the compound exhibits inhibitory activity (Table 3): AURORA-A; also recorded: FLT-3; also recorded: CHEK2

CN(C)CCCSc1nnc(-c2cccs2)[nH]1 [N,N-dimethyl-3-(5-(thiophen-2-yl)-4H-1,2,4-triazol-3-ylthio)propan-1-amine]
protein kinase against which the compound exhibits inhibitory activity (Table 3): c-TAK1; also recorded: AURORA-A; also recorded: GSK3-α

Cn1c(SCC(=O)CC(=O)Nc2ccccc2)nnc1-c1ccc(O)cc1
Kinase: AURORA-A

CCOC(=O)CCCSc1nnc(-c2ccc3[nH]c(C)c(C)c3c2)n1CC
protein kinase against which the compound exhibits inhibitory activity (Table 3): FLT-3

OCCSc1nnc(-c2cccs2)[nH]1 [2-(5-(thiophen-2-yl)-4H-1,2,4-triazol-3-ylthio)ethanol]
protein kinase against which the compound exhibits inhibitory activity (Table 3): DYRK2; also recorded: FLT-3; also recorded: AURORA-A

Cc1cccc(-c2nnc(SCC(N)=O)[nH]2)c1 [2-(5-m-tolyl-4H-1,2,4-triazol-3-ylthio)acetamide]
protein kinase against which the compound exhibits inhibitory activity (Table 3): CHEK2; also recorded: AURORA-A; also recorded: FLT-3

COc1cc(NC(=O)c2ccco2)c(OC)cc1NC(=O)CSc1nnc(-c2cccs2)n1C
Kinase: PDGFRR-α

CCn1c(SCC(=O)Nc2nccs2)nnc1C1COc2ccccc2O1 (centres unmarked)
Kinase: GSK3-α; also recorded: GSK3-β

CCOC(=O)CSc1nnc(-c2ccccc2OC)n1C [ethyl 2-(5-(2-methoxyphenyl)-4-methyl-4H-1,2,4-triazol-3-ylthio)acetate]
Kinase: AURORA-A and FYN

O=C(CSc1nnc(-c2ccc(O)cc2)n1-c1ccccc1)NN(Br)C(=O)c1ccccc1
protein kinase against which the compound exhibits inhibitory activity (Table 3): AURORA-A

Cc1nnc(SCc2ccccc2)[nH]1 [3-(benzylthio)-5-methyl-4H-1,2,4-triazole]
protein kinase against which the compound exhibits inhibitory activity (Table 3): AURORA-A; also recorded: DYRK2

O=C(CSc1nnc(-c2ccc(O)cc2)n1Cc1ccccc1)N1CCCCC1
Kinase: GSK3-α; also recorded: GSK3-β

O=C(CSc1nnc(CNc2ccc(F)cc2)n1Cc1ccccc1)Nc1cccc(O)c1
Kinase: CHEK2

O=C(CSc1nnc(-c2ccc(O)cc2)n1Cc1ccco1)c1ccccc1
Kinase: GSK3-β and GSK3-α and MSK2

CCOC(=O)CSc1nnc(-c2ccc(O)cc2)n1Cc1ccco1
Kinase: GSK3-β; also recorded: GSK3-α

CCn1c(SCC(=O)N2CCCc3ccccc32)nnc1-c1cc2ccccc2cc1O
Kinase: CDK2-cyclinA; also recorded: AURORA-A; also recorded: DAPK1

CCSc1nnc(-c2ccncc2)n1CCCOC [4-(5-(ethylthio)-4-(3-methoxypropyl)-4H-1,2,4-triazol-3-yl)pyridine]
protein kinase against which the compound exhibits inhibitory activity (Table 3): AURORA-A

FC(F)(F)c1cccc(NCc2nnc(S)n2-c2ccccc2)c1
Kinase: GSK3-α

CN(C)CCCSc1nnc(C2CCCC2)[nH]1
protein kinase against which the compound exhibits inhibitory activity (Table 3): c-TAK1

CSc1nnc(COc2ccccc2C)n1Cc1ccccc1 [4-benzyl-3-(methylthio)-5-(o-tolyloxymethyl)-4H-1,2,4-triazole]
protein kinase against which the compound exhibits inhibitory activity (Table 3): MSK2

COc1ccc(-n2c(SC(C)C(=O)Nc3ccccc3)nnc2-c2ccc(O)cc2)cc1 (centres unmarked)
Kinase: GSK3-α and AKT1

COc1ccc(-n2c(SC(C)C(=O)O)nnc2-c2ccc(O)cc2)cc1 (centres unmarked)
Kinase: GSK3-β; also recorded: MAPKAPK-2

CCOc1ccc(NCc2nnc(SCC(=O)NCC3CCCO3)n2-c2ccccc2OC)cc1 (centres unmarked)
Kinase: FYN

Cc1ccc(NCc2nnc(SCC(=O)OC3CCCCC3)n2-c2ccccc2)cc1Cl
Kinase: PAK2 and CHEK1

COc1ccc(-n2c(SCC(N)=O)nnc2-c2ccc(O)cc2)cc1
Kinase: GSK3-β; also recorded: GSK3-α

O=C(CSc1nnc(-c2ccc(O)cc2)n1Cc1ccco1)N1CCc2ccccc21
Kinase: AURORA-A

CCn1c(SCC(=O)NNC(=O)c2ccc(OC)cc2)nnc1-c1ccc(O)cc1
protein kinase against which the compound exhibits inhibitory activity (Table 3): GSK3-a; also recorded: AURORA-A

COc1ccccc1-n1c(SCC(=O)Nc2cccc(NC(=O)c3ccco3)c2)nnc1-c1ccccc1O
protein kinase against which the compound exhibits inhibitory activity (Table 3): AURORA-A

COc1ccccc1-c1nnc(S)n1-c1ccc(C)cc1 [5-(2-methoxyphenyl)-4-p-tolyl-4H-1,2,4-triazole-3-thiol]
Kinase: CDK2-cyclinA and CDK2-cyclinE and CDK5

Cc1cccc(-c2nnc(SCC(=O)Nc3cccc(C(F)(F)F)c3)n2C)c1
Kinase: CDK2-cyclinE

c1ccc(CCSc2nnc(-c3ccc(-c4ccccc4)cc3)[nH]2)cc1 [3-(biphenyl-4-yl)-5-(phenethylthio)-4H-1,2,4-triazole]
protein kinase against which the compound exhibits inhibitory activity (Table 3): AURORA-A

COc1ccc(NCc2nnc(SCc3ccc(Cl)cc3)n2-c2ccccc2)cc1
protein kinase against which the compound exhibits inhibitory activity (Table 3): PDGFRR-α and FYN
